Values quoted from earlier work as cited in publication PMC5962642, “Dynamic imaging of adaptive stress response pathway activation for prediction of drug induced liver injury” (Archives of Toxicology, 2018).

Experiments:
[1] = C-max obtained from FDA or literature; ref per compound (FDA, Dailymed, Xu, O’Brien, Khetani, Regenthal, Gustafsson, Dawson, Ogutu, Patel, Schmidt, Ravic, Keisu, Hu, Wagner); cited from earlier work
[2] = ref livertox.nih.gov database; cited from earlier work
[3] = ref Chen et al. [2016], cited from earlier work; for Hepa. (hepatotoxicity class): FDA labeling in eight classes of hepatotoxicity; for DILI con. (DILI-concern labeling): FDA DILI labeling

SMILES	Cmax [1]	Metab (metabolic potential) [2]	Hepa. (hepatotoxicity class) [3]	DILI con. (DILI-concern labeling) [3]
CC(O)(CS(=O)(=O)c1ccc(F)cc1)C(=O)Nc1ccc(C#N)c(C(F)(F)F)c1 (stereo not drawn) [Bicalutamide]	1.97 µM	YES	8	
COc1ccccc1Oc1c(NS(=O)(=O)c2ccc(C(C)(C)C)cc2)nc(-c2ncccn2)nc1OCCO [Bosentan]		YES	7	Most-DC
CN/C(=N/CCSCc1nc[nH]c1C)NC#N [Cimetidine]	11.9 µM	YES	2	Less-DC
CCOC(=O)C(C)(C)Oc1ccc(Cl)cc1 [Clofibrate]	470 µM	YES	3	Less-DC
CCOC(=O)[C@H](CCc1ccccc1)N[C@@H](C)C(=O)N1CCC[C@H]1C(=O)O [Enalapril]	0.4 µM	YES	7	Less-DC
NC(N)=Nc1nc(CSCCC(N)=NS(N)(=O)=O)cs1 [Famotidine]	0.308 µM	YES	3	Less-DC
CC(C(=O)O)c1cccc(Oc2ccccc2)c1 (stereo not drawn) [Fenoprofen]	58.2 µM	YES	8	Most-DC
CC(C(=O)O)c1ccc(-c2ccccc2)c(F)c1 (stereo not drawn) [Flurbiprofen]	57.3 µM	YES	3	Amb.-DC
COC1=CC(=O)C[C@@H](C)[C@]12Oc1c(Cl)c(OC)cc(OC)c1C2=O [Griseofulvin]	4.54 µM	YES		
O=C(CCCN1CCC(O)(c2ccc(Cl)cc2)CC1)c1ccc(F)cc1 [Haloperidol]	0.005 µM	YES	5	
CN(C)CCCN1c2ccccc2CCc2ccccc21 [Imipramine]	0.29 µM	YES		
CN(C)C(=N)N=C(N)N [Metformin]		YES	1	Less-DC
Cc1cccc(C)c1OCC(C)N (stereo not drawn) [Mexiletine]	3.83 µM	YES	3	
CS(=O)(=O)Nc1ccc([N+](=O)[O-])cc1Oc1ccccc1 [Nimesulide]	21.1 µM	YES		
CNC(=C[N+](=O)[O-])NCCSCc1csc(CN(C)C)n1 [Nizatidine]	4 µM	YES	5	Less-DC
Fc1ccc([C@@H]2CCNC[C@H]2COc2ccc3c(c2)OCO3)cc1 [Paroxetine]		YES	8	Less-DC
CC(C)NCC(O)COc1cccc2ccccc12 (stereo not drawn) [Propranolol]		YES		
CNC(=C[N+](=O)[O-])NCCSCc1ccc(CN(C)C)o1 [Ranitidine]	1.79 µM		5	Less-DC
C=CC[C@@H]1/C=C(\C)C[C@H](C)C[C@H](OC)[C@H]2O[C@@](O)(C(=O)C(=O)N3CCCC[C@H]3C(=O)O[C@H](/C(C)=C/[C@@H]3CC[C@@H](O)[C@H](OC)C3)[C@H](C)[C@@H](O)CC1=O)[C@H](C)C[C@@H]2OC [Tacrolimus]		YES	5	Less-DC
CC/C(=C(\c1ccccc1)c1ccc(OCCN(C)C)cc1)c1ccccc1 [Tamoxifen]		YES		
CN(C/C=C/C#CC(C)(C)C)Cc1cccc2ccccc12 [Terbinafine]	4 µM		8	Most-DC
